Measurements as given in patent US5463030A, “Metal chelating agents for medical application” (Research Foundation of the State of New York, priority 1994, dated 1995).
Like-named read-outs stand apart in the source and are kept apart here.

Key:
[1] = rat, in vivo, 0 min
[2] = mouse, in vivo; for % dosage, Urine: iv
Procedure: Groups of four mice were individually injected in the tail vein with 20 μM/Kg of body weight (10-20 μCi) of Gd-153 labeled DTPA-bis (2,6-dimethylaniline). Each group of mice was sacrificed at intervals of 1,3 and 24 hours. The blood was collected from the heart just before the animals were sacrificed and the animals were dissected and individual organs were assayed.

[3] = in vivo; cited from earlier work
[4] = Osmotic pressure of Gd-DTPA bis pyridoxylamine solution; assay type: physicochemical; conditions: 0.144 moles/liter solution; pH 7.08
Procedure: 0.50 g of the DTPA-bis pyridoxylamine synthesized in Example 4 was reacted with 0.15 g of Gd(OH)3 and 3.6 ml of water. The pH of the mixture was adjusted to 7.51 with sodium hydroxide. The mixture was then heated in an oil bath at a temperature of about 90° C. for about 45 minutes. The mixture was cooled and the pH adjusted to 7.08 with sodium hydroxide. 5.0 ml of the product was recovered. The concentration of the resulting Gd-DTPA bis pyridoxylamine was determined to be 0.144 moles/liter with an osmotic pressure of 646 m Os moles/liter.

[5] = cited from earlier work
[6] = MRI; cited from earlier work

Cc1cccc(C)c1NC(=O)CN(CCN(CCN(CC(=O)[O-])CC(=O)Nc1c(C)cccc1C)CC(=O)[O-])CC(=O)[O-].[153Gd+3] [Gadolinium III chelate of DTPA-bis (2,6-dimethylaniline)]
% Retained, whole body [1]: 100% | % dosage, Blood ([2]; 60 min): .4441 % DOSAGE | % dosage, Bone ([2]; 60 min): .1489 % DOSAGE | % dosage, Large Intestine ([2]; 60 min): .0781 % DOSAGE | % dosage, Left Kidney ([2]; 60 min): .7115 % DOSAGE | % dosage, Liver ([2]; 60 min): 22.95 % DOSAGE | % dosage, Lungs ([2]; 60 min): .0326 % DOSAGE | % dosage, Muscle ([2]; 60 min): .6207 % DOSAGE | % dosage, Right Kidney ([2]; 60 min): .6676 % DOSAGE | % dosage, Small Intestine ([2]; 60 min): 36.08 % DOSAGE | % dosage, Spleen ([2]; 60 min): .0214 % DOSAGE | % dosage, Stomach ([2]; 60 min): .2113 % DOSAGE | % dosage, Blood ([2]; 180 min): .0188 % DOSAGE | % dosage, Bone ([2]; 180 min): .0678 % DOSAGE | % dosage, Large Intestine ([2]; 180 min): 1.471 % DOSAGE | % dosage, Left Kidney ([2]; 180 min): .4528 % DOSAGE | % dosage, Liver ([2]; 180 min): 2.805 % DOSAGE | % dosage, Lungs ([2]; 180 min): .0075 % DOSAGE | % dosage, Muscle ([2]; 180 min): .6183 % DOSAGE | % dosage, Right Kidney ([2]; 180 min): .5235 % DOSAGE | % dosage, Small Intestine ([2]; 180 min): 52.10 % DOSAGE | % dosage, Spleen ([2]; 180 min): .0096 % DOSAGE | % dosage, Stomach ([2]; 180 min): .1254 % DOSAGE | % dosage, Blood ([2]; 1440 min): .0038 % DOSAGE | % dosage, Bone ([2]; 1440 min): .1551 % DOSAGE | % dosage, Large Intestine ([2]; 1440 min): .5091 % DOSAGE | % dosage, Left Kidney ([2]; 1440 min): .1050 % DOSAGE | % dosage, Liver ([2]; 1440 min): 1.659 % DOSAGE | % dosage, Lungs ([2]; 1440 min): .0085 % DOSAGE | % dosage, Muscle ([2]; 1440 min): .0861 % DOSAGE | % dosage, Right Kidney ([2]; 1440 min): .1102 % DOSAGE | % dosage, Small Intestine ([2]; 1440 min): .1533 % DOSAGE | % dosage, Spleen ([2]; 1440 min): .0042 % DOSAGE | % dosage, Stomach ([2]; 1440 min): .0468 % DOSAGE | % dosage, Urine ([2]; 1 h): 26.30 % DOSAGE | % dosage, Urine ([2]; 3 h): 32.13 % DOSAGE

O=C([O-])CN(CCN(CC(=O)[O-])CC(=O)[O-])CCN(CC(=O)[O-])C(COCc1ccccc1)C(=O)[O-].[Gd+3] (stereo not drawn) [Gd-BOPTA, gadolinium-benzyloxyproprionyl tetracetate]
liver concentration of injected dose [3]: 37%

Cc1ncc(CO)c(CNC(=O)CN(CCN(CCN(CC(=O)[O-])CC(=O)NCc2c(CO)cnc(C)c2O)CC(=O)[O-])CC(=O)[O-])c1O.[Gd+3] [Gd-DTPA bis pyridoxylamine, Gadolinium III chelate of DTPA-bis pyridoxylamide]
osmotic pressure [4]: 646 m Os moles/liter

O=C([O-])CN(CCN(CC(=O)[O-])CC(=O)O)CCN(CC(=O)[O-])CC(=O)O.[Gd+3] [Gd-DTPA, gadolinium-diethylene triamino pentaacetic acid]
blood clearance and excretion [3]: rapid clearance from the blood and subsequent prompt renal excretion

gadolinium-hepatic iminodiacetic acid [Gd-HIDA]
in vivo stability [5]: unstable in vivo | image enhancement of the gall bladder [6]: failed to enhance the image of the gall bladder | image enhancement of the liver [6]: only faintly enhanced images of the liver
